Source: ChEMBL document CHEMBL5729152, “Lysyl oxidase-like 2 inhibitors and uses thereof” (2022)

Biological target: T1, Lysyl oxidase homolog 2 (Homo sapiens, UniProt Q9Y4K0)
T1 sequence (Q9Y4K0 whole entry): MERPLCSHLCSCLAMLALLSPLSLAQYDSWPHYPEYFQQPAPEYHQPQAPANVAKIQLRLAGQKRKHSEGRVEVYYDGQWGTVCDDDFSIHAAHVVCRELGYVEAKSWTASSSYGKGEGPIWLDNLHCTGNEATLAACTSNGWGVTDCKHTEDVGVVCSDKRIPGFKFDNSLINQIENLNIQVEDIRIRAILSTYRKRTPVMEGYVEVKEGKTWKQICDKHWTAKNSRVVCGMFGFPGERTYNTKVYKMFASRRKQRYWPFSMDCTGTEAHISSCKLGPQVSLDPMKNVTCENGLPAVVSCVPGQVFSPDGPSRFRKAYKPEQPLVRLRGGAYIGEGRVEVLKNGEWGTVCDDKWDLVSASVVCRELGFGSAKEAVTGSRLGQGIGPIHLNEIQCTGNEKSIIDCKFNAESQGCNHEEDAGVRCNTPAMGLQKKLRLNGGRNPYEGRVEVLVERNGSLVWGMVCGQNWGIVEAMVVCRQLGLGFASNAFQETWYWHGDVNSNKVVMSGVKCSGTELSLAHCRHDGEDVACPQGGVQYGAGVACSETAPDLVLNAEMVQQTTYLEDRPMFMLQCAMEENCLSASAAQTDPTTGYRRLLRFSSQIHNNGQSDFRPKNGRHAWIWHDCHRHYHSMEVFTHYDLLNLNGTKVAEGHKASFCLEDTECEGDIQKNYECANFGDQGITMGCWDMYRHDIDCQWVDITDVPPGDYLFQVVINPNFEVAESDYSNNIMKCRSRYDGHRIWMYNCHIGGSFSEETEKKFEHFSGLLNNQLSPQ
Test: Human LOXL2 Amine Oxidase Activity Assay: LOXL2 amine oxidase activity is evaluated by measuring Amplex Red fluorescence using 10-20× concentrated conditioned media from CHO cells stably expressing human LOXL2. To assay for amine oxidase activity, 10 μL of the concentrated conditioned media is incubated with 2 μL of test compound in DMSO and 73 μL Assay Buffer (50 mM Borate Buffer, pH8) for 2 h at 37° C. After the 2 h incubation, 5 μl of 10 mM 1,5-Diaminopentane (DAP) diluted in Assay Buffer and 10 μl of Amplex Red Mix (8.5 μl Assay Buffer+0.5 μl of 10 mM Amplex Red+1 μl of 500 U/ml Horseradish Peroxidase) are added and the plate mixed and immediately placed on the FlexStaion for fluorescence measurements. Fluorescence is read in kinetic mode every 2 min for 1 hour at excitation=544 and emission=590. The amine oxidase activity is calculated from the slope of the linear portion of the curve

Row | Compound | IC50 [nM]
1 | CCN1CCN(Cc2ccc(CNC(=O)c3cccc(Oc4cc(CN)ccn4)c3)cc2)CC1 | < 300
2 | NCc1ccnc(C(=O)NCc2ccccc2)c1 | < 300
